# Data from patent publication US7705016B2, “Regulation of food intake by modulation of long-chain fatty acyl-CoA levels in the hypothalamus” (Albert Einstein College of Medicine of Yeshiva University, priority 2003, dated 2010).
# Values joined by “and” are separate entries in the source; they are usually repeats but may differ in a detail not shown here. Equal entries are not always repeated. “Also recorded” adds a separate entry of the source.
# System: male Sprague-Dawley (S-D) rats
# Assay: ICV OA infusion with pancreatic-insulin clamp (insulin action studies)
# Type: in vivo, rat
# Conditions: for effect on GP: over-fed rats (HF140)
# From the text: Insulin action studies. The experimental protocol herein was designed to examine the effect of nutritional status on the ability of long-chain fatty acids in the hypothalamus to modulate carbohydrate metabolism. Rats (n=43) were implanted with chronic catheters as previously described (Liu et al., 1998). After full recovery from the catheterization, animals were randomized into three groups HF55 (n=16), HF80 (n=9), or HF140 (n=18) and were allowed to consume their allocated diet for three days. On the night prior to the in vivo study all rats received 55 kcal to ensure a similar nutritional state at the start of the metabolic studies. All studies were performed in awake, unstressed, chronically catheterized rats. At t=−120 (FIG. 7a), a primed-continuous infusion of ICV OA (total dose 30- or 300-nmol) or Vehicle (HBP 10% in aCSF) was initiated and maintained throughout the duration of the study. Plasma glucose was measured periodically initiating at the onset (t=−120) of the ICV infusion and lasting throughout the duration of the study. Plasma samples for determination of insulin, leptin, and non-esterified fatty acid concentration were obtained at the onset (t=−120) and at 30 min intervals during the study. At t=0, and a primed-continuous infusion of HPLC-purified [3-3H]-glucose (New England Nuclear, Boston, Mass.; 40 μCi bolus, 0.4 μCi/min for duration of the study) was initiated and maintained for the last four hours of the study. Samples for determination of ^3H-glucose specific activity were obtained at 10-minute intervals throughout infusions. Finally, at t=120, a pancreatic-insulin clamp study was initiated and maintained for two hours. During this procedure, a primed-continuous infusion of regular insulin (1 mU/kg/min) was administered, and a variable infusion of 25% glucose solution was started at t=120 and periodically adjusted to clamp the plasma glucose concentration at ˜7 mM. The rate of insulin infusion was designed to replace the plasma insulin concentration at ˜the average basal levels in post-absorptive rats. In order to control for possible effects of the ICV injections on endocrine pancreas, somatostatin (3 μg/kg/min) was coinfused with insulin to inhibit endogenous insulin secretion. At the end of the in vivo studies, rats were anesthetized (pentobarbital 55 mg/kg body weight, intravenously) and tissue samples were freeze-clamped in situ with aluminum tongs pre-cooled in liquid nitrogen. All tissue samples were stored at −80° C. for subsequent analysis.
# Analytical Procedures and Calculations. Plasma glucose was measured by the glucose oxidase method (Glucose Analyzer II, Beckman Instruments, Inc. Fullerton, Calif., USA). Plasma insulin and leptin levels were determined by RIA (rat Leptin RIA kit, Linco Research Inc., St. Charles, Mo.). Serum adiponectin was measured by RIA (Linco Research, Inc., St. Charles, Mo.). Plasma non-esterified fatty acid concentrations were determined an enzymatic method by an automated kit according to the manufacturer's specifications (Waco Pure Chemical Industries. Osaka, Japan). The radioactivity of [3-^3H]glucose in plasma was measured from supernatants of Ba (OH)2 and from ZnSO4 precipitates (Somogyi procedure), after each was evaporated to dryness for the removal of tritiated water. […]
smiles,measurement,setting,value
"CCCCCCCC/C=C\CCCCCCCC(=O)O [OA, oleic acid]","inhibition of GP, decrease from basal","HF55, ICV OA 30 nmol",71%
same,GIR required to maintain euglycemia,"HF80, ICV OA 30 nmol",4.64 mg/kg/min and ~9 mg/kg/min
same,effect on GP,ICV OA 30 nmol,failed to significantly alter GP
same,effect on GP,ICV OA 300 nmol,failed to significantly decrease GP; also recorded: failed to significantly alter GP
same,rate of glucose disappearance (Rd),"pancreatic-insulin clamp, any of the experimental groups",did not significantly modify; also recorded: not significantly affected
